Consider nine compounds from patent publication US8987267B2, “2-substituted-8-alkyl-7-OXO-7,8-dihydropyrido[2,3-D]pyrimidine-6-carbonitriles and uses thereof in treating proliferative disorders” (Temple University—of the Commonwealth System of Higher …, priority 2010, dated 2015).

Usually pIC50 stands for the negative decadic logarithm of the IC50, by convention in mol/L.

pIC50: −log10 of the molar value.

Common to all, as to type: biochemical
Experiment [1] deals with T1, His-tagged full length ARK5 (Homo sapiens, UniProt O60285).
T1 construct: 20 ng His-tagged full length ARK5 (Invitrogen PV4127); His; purchased Invitrogen PV4127
T1 sequence (O60285 1-661): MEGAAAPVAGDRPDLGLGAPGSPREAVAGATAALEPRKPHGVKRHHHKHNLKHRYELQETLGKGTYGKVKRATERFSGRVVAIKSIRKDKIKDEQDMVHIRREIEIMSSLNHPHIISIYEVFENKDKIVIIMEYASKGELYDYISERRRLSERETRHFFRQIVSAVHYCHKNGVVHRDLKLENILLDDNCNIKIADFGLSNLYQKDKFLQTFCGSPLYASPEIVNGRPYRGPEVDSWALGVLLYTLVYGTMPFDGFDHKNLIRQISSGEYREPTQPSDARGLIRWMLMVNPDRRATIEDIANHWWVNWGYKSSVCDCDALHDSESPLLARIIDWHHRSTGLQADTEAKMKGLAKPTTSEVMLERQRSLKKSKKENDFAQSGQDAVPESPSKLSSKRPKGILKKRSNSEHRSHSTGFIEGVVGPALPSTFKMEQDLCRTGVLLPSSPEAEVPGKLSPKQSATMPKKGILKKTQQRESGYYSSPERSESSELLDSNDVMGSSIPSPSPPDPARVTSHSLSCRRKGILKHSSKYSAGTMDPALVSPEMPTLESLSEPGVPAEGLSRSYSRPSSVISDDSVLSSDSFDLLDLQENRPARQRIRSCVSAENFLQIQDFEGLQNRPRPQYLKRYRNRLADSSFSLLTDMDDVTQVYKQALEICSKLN
Description: ARK5 Kinase Assay (ARK5 Inhibition Assay). The following applies: CHKtide substrate, 1 μM ATP. On the procedure: 20 ng His-tagged full length ARK5 (Invitrogen PV4127), a protein kinase, was diluted into kinase buffer (25 mM HEPES pH 7.5, 10 mM MgCl2, 0.5 mM EGTA, 0.5 mM Na3V04, 5 mM β Glycerophosphate, 2.5 mM DTT, 0.01% Triton X-100) and incubated with the indicated concentration of a compound of Table 3 at room temperature for 30 minutes. The kinase reactions were then initiated by the addition of 1 μg (3.28 μM) CHKtide substrate peptide (Upstate 12-414), 1 μM ATP and 10 μCi γ^32 P-ATP. The reactions were incubated at 30° C. for 10 minutes.
Subsequently, the reactions were stopped by adding 3% phosphoric acid. A 10 μl aliquot was then transferred to an appropriate area of a p30 filtermat. The filtermat was allowed to dry for 20 minutes at room temperature and then washed three times with 75 mM phosphoric acid and twice with methanol. The filtermat was then dried for 20 minutes at room temperature. The filtermat was then exposed to X ray film or read in a scintillation counter. The scintillation counting values were plotted as function of log drug concentration using Prism 4 Graph pad software and IC50 values determined by plotting sigmoidal non-linear regression curves with variable slope.

A further experiment deals with ARK5 (Homo sapiens, UniProt O60285). Description: Kinase inhibition panel. The following applies: 10 μM ATP.
The next experiment deals with c-Kit (Homo sapiens, UniProt P10721). The experiment is described as follows: Kinase inhibition panel. The following applies: 10 μM ATP.
Sequence of c-Kit (P10721 26-976): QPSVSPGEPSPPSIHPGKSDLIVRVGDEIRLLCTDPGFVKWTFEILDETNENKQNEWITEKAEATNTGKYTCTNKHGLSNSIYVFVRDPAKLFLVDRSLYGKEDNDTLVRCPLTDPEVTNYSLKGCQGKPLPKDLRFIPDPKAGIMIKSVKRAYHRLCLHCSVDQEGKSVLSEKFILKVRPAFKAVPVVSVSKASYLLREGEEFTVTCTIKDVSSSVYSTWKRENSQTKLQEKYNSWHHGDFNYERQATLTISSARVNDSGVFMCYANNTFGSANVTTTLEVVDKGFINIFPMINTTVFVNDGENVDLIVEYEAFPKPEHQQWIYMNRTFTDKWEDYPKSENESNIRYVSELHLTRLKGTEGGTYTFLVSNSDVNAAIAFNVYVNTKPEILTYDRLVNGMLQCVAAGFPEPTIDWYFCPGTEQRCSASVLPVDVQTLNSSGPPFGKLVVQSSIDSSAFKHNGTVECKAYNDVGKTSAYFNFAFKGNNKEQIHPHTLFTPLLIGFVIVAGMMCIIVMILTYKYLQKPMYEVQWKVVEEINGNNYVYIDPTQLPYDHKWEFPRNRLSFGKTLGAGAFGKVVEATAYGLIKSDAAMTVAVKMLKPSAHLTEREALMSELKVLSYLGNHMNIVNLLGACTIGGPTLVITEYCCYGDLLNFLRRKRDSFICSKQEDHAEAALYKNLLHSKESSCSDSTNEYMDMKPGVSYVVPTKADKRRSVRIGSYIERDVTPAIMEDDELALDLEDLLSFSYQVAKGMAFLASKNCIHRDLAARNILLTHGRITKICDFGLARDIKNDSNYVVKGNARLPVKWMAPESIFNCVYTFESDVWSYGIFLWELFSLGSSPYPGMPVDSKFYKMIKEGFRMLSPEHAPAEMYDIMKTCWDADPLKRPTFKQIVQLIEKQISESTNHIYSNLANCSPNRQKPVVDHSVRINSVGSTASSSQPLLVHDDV
The next experiment has as its target FGR (Homo sapiens, UniProt P09769). Description: Kinase inhibition panel. As to conditions: 10 μM ATP.
The next experiment addresses FLT4NEGFR3 (Homo sapiens, UniProt P35916). Description: Kinase inhibition panel. As to conditions: 10 μM ATP.
The next experiment deals with PKCmu (Homo sapiens, UniProt Q15139). Description: Kinase inhibition panel. As to conditions: 10 μM ATP.
Sequence of PKCmu (Q15139 whole entry): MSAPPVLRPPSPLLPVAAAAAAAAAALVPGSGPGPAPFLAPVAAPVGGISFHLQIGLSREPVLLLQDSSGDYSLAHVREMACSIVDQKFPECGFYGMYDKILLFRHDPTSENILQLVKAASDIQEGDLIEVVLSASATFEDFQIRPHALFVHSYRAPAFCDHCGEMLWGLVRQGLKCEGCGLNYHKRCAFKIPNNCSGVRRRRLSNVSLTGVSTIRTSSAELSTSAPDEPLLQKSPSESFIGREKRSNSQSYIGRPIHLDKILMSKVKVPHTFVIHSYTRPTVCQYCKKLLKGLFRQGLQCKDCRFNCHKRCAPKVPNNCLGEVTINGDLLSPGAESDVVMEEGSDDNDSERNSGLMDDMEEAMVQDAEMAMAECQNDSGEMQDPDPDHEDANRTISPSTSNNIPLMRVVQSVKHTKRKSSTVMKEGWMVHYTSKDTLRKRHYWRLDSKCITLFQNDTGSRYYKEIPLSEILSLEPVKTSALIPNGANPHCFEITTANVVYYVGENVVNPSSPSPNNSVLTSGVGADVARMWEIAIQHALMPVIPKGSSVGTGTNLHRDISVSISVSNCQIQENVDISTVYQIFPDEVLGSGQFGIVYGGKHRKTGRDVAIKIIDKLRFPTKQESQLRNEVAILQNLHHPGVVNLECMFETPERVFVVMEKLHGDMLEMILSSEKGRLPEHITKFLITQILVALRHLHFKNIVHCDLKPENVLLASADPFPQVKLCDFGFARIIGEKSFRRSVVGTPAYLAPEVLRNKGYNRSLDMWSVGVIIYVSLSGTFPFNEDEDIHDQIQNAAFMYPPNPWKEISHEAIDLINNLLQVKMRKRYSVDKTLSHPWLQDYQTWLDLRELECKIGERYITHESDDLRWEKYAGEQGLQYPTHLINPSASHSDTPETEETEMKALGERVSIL
A further experiment addresses TTK (Homo sapiens, UniProt P33981). Description: Kinase inhibition panel. As to conditions: 10 μM ATP.

Sequence of FGR (P09769 whole entry, species assumed): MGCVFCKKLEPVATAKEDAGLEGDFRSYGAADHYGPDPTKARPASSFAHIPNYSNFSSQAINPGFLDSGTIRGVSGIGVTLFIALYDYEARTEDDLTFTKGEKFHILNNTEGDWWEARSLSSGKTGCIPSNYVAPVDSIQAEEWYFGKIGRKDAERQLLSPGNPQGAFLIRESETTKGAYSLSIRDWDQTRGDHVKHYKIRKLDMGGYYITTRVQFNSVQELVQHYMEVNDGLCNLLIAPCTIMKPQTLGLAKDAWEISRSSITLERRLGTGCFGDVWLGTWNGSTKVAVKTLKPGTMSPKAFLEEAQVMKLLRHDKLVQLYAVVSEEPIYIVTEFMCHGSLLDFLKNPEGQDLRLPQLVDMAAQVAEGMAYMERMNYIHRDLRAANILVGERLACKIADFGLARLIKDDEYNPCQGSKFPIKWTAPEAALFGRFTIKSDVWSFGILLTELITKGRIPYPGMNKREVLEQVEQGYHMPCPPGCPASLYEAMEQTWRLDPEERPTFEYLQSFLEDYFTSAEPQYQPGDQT
Sequence of TTK (P33981 whole entry, species assumed): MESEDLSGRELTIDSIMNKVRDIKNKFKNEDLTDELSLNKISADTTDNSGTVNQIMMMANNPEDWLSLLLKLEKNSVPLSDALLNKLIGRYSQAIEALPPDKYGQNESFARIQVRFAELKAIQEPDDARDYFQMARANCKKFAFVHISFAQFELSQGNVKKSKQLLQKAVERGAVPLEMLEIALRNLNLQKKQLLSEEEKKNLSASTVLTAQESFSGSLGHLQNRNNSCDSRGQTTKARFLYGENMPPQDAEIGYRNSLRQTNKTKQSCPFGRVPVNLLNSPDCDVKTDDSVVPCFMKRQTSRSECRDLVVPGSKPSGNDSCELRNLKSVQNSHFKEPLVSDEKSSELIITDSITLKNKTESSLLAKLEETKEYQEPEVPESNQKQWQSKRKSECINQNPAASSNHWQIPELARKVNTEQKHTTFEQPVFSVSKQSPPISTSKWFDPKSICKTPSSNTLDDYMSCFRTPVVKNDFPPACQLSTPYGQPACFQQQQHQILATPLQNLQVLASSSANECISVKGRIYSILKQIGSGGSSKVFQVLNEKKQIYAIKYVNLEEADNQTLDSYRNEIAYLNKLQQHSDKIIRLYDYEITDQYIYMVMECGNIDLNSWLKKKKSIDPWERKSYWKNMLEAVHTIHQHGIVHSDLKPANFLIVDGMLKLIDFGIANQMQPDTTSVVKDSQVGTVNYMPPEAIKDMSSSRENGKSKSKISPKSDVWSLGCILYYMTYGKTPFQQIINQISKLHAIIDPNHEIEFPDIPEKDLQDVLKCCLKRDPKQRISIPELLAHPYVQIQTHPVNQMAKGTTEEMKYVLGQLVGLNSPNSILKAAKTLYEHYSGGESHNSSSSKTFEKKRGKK
Sequence of FLT4NEGFR3 (P35916 25-1363): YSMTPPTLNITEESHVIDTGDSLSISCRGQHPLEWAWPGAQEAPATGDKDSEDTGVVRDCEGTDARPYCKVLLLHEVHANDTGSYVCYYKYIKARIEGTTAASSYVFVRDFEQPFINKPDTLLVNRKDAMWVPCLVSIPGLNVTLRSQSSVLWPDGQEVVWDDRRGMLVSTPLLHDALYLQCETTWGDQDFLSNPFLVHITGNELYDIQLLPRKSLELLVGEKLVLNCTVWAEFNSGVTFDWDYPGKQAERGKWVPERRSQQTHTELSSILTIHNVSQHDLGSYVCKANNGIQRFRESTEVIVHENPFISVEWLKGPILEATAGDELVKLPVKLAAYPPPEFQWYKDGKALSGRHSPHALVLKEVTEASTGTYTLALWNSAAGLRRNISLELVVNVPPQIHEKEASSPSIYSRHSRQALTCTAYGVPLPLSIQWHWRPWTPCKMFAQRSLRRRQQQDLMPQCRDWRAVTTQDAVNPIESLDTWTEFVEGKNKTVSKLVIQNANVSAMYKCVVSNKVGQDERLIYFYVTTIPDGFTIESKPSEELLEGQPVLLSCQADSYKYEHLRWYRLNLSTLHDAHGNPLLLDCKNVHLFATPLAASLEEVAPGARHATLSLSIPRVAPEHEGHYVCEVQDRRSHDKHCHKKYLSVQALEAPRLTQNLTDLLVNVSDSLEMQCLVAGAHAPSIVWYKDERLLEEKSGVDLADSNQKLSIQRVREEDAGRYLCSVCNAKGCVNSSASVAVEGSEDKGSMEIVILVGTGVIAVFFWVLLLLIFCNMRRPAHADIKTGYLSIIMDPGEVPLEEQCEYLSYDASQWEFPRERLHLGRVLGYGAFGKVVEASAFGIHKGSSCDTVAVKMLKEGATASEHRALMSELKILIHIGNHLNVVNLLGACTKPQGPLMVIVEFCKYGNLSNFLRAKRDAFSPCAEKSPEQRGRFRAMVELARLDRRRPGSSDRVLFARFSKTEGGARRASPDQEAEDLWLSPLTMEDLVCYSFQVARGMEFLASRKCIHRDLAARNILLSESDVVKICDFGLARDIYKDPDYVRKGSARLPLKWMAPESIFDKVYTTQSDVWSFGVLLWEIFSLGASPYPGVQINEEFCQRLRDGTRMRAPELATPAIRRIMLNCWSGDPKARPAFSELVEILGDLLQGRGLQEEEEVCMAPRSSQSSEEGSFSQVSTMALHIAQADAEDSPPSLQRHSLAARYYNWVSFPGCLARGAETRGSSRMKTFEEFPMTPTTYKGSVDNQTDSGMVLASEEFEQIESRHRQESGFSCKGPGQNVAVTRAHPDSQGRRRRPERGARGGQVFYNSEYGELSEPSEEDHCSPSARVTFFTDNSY

As for `COc1cc(Nc2ncc3cc(C#N)c(=O)n(C4CCCC4)c3n2)cc(OC)c1OC` [Compound 15, 8-cyclopentyl-7-oxo-2-((3,4,5-trimethoxyphenyl)amino)-7,8-dihydropyrido[2,3-d]pyrimidine-6-carbonitrile], the pIC50 in experiment [1] is 7.30.

Consider `COc1ccc(Nc2ncc3ccc(=O)n(C4CCCC4)c3n2)c(OC)c1` [Comp. Ex. 5, 8-cyclopentyl-2-((2,4-dimethoxyphenyl)amino)pyrido[2,3-d]pyrimidin-7(8H)-one, reference compound], for which the negative-log IC50 (pIC50) in experiment [1] is below 5.30.

For the compound `CN1CCN(c2ccc(Nc3ncc4cc(S(=O)(=O)c5ccc(Cl)cc5)c(=O)n(C5CCCC5)c4n3)cc2)CC1` [Comp. Ex. 2, 6-((4-chlorophenyl)sulfonyl)-8-cyclopentyl-2-((4-(4-methylpiperazin-1-yl)phenyl)amino)pyrido[2,3-d]pyrimidin-7(8H)-one, reference compound], the pIC50 in experiment [1] is below 5.00.

In experiment [1], `COc1ccc(Nc2ncc3ccc(=O)n(C4CCCC4)c3n2)cc1OC` [Comp. Ex. 4, 8-cyclopentyl-2-((3,4-dimethoxyphenyl)amino)pyrido[2,3-d]pyrimidin-7(8H)-one, reference compound] had a negative-log IC50 (pIC50) below 6.00.

On to `CN1CCN(c2ccc(Nc3ncc4cc(S(C)(=O)=O)c(=O)n(C5CCCC5)c4n3)cc2)CC1` [Comp. Ex. 1, 8-cyclopentyl-2-((4-(4-methylpiperazin-1-yl)phenyl)amino)-6-(methylsulfonyl)pyrido[2,3-d]pyrimidin-7(8H)-one, reference compound], for which the pIC50 in experiment [1] was below 5.00.

Consider `N#Cc1cc2cnc(Nc3ccc(N4CCOCC4)cc3)nc2n(C2CCCC2)c1=O` [Compound 13, 8-cyclopentyl-2-((4-morpholinophenyl)amino)-7-oxo-7,8-dihydropyrido[2,3-d]pyrimidine-6-carbonitrile], for which the negative-log IC50 (pIC50) in experiment [1] was 7.12.

`COc1cc(Nc2ncc3cc(C#N)c(=O)n(C4CCCC4)c3n2)cc(OC)c1` [Compound 14, 8-cyclopentyl-2-((3,5-dimethoxyphenyl)amino)-7-oxo-7,8-dihydropyrido[2,3-d]pyrimidine-6-carbonitrile] showed a pIC50 in experiment [1] of 7.12.

With `CN1CCN(c2ccc(Nc3ncc4cc(C#N)c(=O)n(C5CCCCC5)c4n3)cc2)CC1` [Compound 16, 8-cyclohexyl-2-((4-(4-methylpiperazin-1-yl)phenyl)amino)-7-oxo-7,8-dihydropyrido[2,3-d]pyrimidine-6-carbonitrile], the pIC50 in experiment [1] is 7.36.

Take `CC(=O)c1c(C)c2cnc(Nc3ccc(N4CCNCC4)cn3)nc2n(C2CCCC2)c1=O` [PD0332991, reference compound]: the pIC50 at ARK5 was 5.47; on c-Kit it was below 5.00; on FGR it was below 5.00; at FLT4NEGFR3, below 5.00; against PKCmu, 6.90; against TTK, 6.16.
